34 compounds from patent US8030321B2, “Benzofuro- and benzothienopyrimidine modulators of the histamine H4 receptor” (Janssen Pharmaceutica, NV, priority 2006, dated 2011) can be followed below.

pKi: −log10 of the molar value. Where a name gives a salt, the structure may show the parent alone. Bounds are passed on as bounds.

For the first assay, the target named is T1, human histamine H4 receptor (Homo sapiens, UniProt Q9H3N8).
T1 construct: expressed in transfected cells; host or cells: SK-N-MC cells or COS7 cells, transiently transfected; cell membranes used
T1 sequence (Q9H3N8 whole entry): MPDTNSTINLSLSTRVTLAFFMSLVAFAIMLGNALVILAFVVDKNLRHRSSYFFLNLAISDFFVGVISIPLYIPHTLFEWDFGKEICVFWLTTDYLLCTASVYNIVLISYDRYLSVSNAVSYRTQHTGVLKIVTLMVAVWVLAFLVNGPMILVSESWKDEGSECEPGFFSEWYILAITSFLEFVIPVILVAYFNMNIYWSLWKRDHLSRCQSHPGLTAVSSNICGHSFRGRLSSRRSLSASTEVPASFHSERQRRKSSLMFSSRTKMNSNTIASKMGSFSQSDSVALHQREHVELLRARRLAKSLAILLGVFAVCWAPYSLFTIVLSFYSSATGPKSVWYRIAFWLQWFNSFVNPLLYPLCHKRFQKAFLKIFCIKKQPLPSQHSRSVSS
Description: Binding Assay on Recombinant Human Histamine H4 Receptor.
Details: not given
Put shortly:
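Membranes from SK-N-MC or COS7 cells transiently transfected with human H4 receptor were incubated with ³H-histamine (5-70 nM); nonspecific binding defined with 10,000 nM histamine. Bound radioactivity collected by GF/C filtration and scintillation counting; test compounds assessed by displacement of ³H-ligand binding across concentrations.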
For the compound `Nc1nc(N2CC3CCNC3C2)c2oc3ccc(Cl)cc3c2n1` (stereo not shown) [Example 80, 8-Chloro-4-(hexahydro-pyrrolo[3,4-b]pyrrol-5-yl)-benzo[4,5]furo[3,2-d]pyrimidin-2-ylamine trifluoroacetic acid salt], the pKi (in general, the negative decadic logarithm of the Ki, by convention in mol/L) is 8.44. Same read-out and setting: the figure for `Nc1nc(N2C[C@H]3C[C@@H]2CN3)c2oc3ccc(Cl)cc3c2n1` [Example 81, (R,R)-8-Chloro-4-(2,5-diaza-bicyclo[2.2.1]hept-2-yl)-benzo[4,5]furo[3,2-d]pyrimidin-2-ylamine trifluoroacetic acid salt] is 7.00; for `Nc1nc(N2C[C@H]3CCCN[C@H]3C2)c2oc3ccc(Cl)cc3c2n1` [Example 82, (R,R)-8-Chloro-4-(octahydro-pyrrolo[3,4-b]pyridin-6-yl)-benzo[4,5]furo[3,2-d]pyrimidin-2-ylamine citrate salt] it is 7.68; for `Nc1nc(N2C[C@@H]3CCCN[C@@H]3C2)c2oc3ccc(Cl)cc3c2n1` [Example 83, 8-Chloro-4-(octahydro-pyrrolo[3,4-b]pyridin-6-yl)-benzo[4,5]furo[3,2-d]pyrimidin-2-ylamine citrate salt] it is 8.33. As for `Nc1nc(N2CC3CCC(C2)N3)c2oc3ccc(Cl)cc3c2n1` [Example 97, 8-Chloro-4-(3,8-diaza-bicyclo[3.2.1]oct-3-yl)-benzo[4,5]furo[3,2-d]pyrimidin-2-ylamine trifluoroacetic acid salt], the pKi is 7.38. Same read-out and setting: in the case of `CN1C[C@@H]2C[C@H]1CN2c1nc(N)nc2c1oc1ccc(Cl)cc12` [Example 106, (S,S)-8-Chloro-4-(5-methyl-2,5-diaza-bicyclo[2.2.1]hept-2-yl)-benzo[4,5]furo[3,2-d]pyrimidin-2-ylamine trifluoroacetic acid salt] it was 7.96.

Still in this assay, the particulars now being: competition binding with 3H-histamine (5 nM), membranes of SK-N-MC or COS7 cells expressing human H4 receptor; Cheng-Prusoff, KD 5 nM; average of results obtained; read-out: Ki.
As for `Nc1nc(N2C[C@@H]3C[C@H]2CN3)c2sc3cc(Br)ccc3c2n1` [Example 77, (S,S)-7-Bromo-4-(2,5-diaza-bicyclo[2.2.1]hept-2-yl)-benzo[4,5]thieno[3,2-d]pyrimidin-2-ylamine trifluoroacetic acid salt], the pKi was 5.49.

Take `Nc1nc(N2CC3C(N)C3C2)c2oc3ccc(Cl)cc3c2n1` (stereo not shown) [Example 78, 4-(6-Amino-3-aza-bicyclo[3.1.0]hex-3-yl)-8-chloro-benzo[4,5]furo[3,2-d]pyrimidin-2-ylamine trifluoroacetic acid salt]: the pKi was 7.66. Same read-out and setting: in the case of `NC[C@H]1CCCN1c1nc(N)nc2c1oc1ccc(Cl)cc12` [Example 79, (R)-4-(2-Aminomethyl-pyrrolidin-1-yl)-8-chloro-benzo[4,5]furo[3,2-d]pyrimidin-2-ylamine trifluoroacetic acid salt] it was less than 5.00. Still for that read-out and setting: the figure for `CN[C@@H]1CCN(c2nc(N)nc3c2oc2cccc(C(F)(F)F)c23)C1` [Example 84, (R)-4-(3-Methylamino-pyrrolidin-1-yl)-9-trifluoromethyl-benzo[4,5]furo[3,2-d]pyrimidin-2-ylamine citrate salt] is less than 5.00.

With `COc1cccc2oc3c(N4C[C@@H]5C[C@H]4CN5)nc(N)nc3c12` [Example 85, (S,S)-4-(2,5-Diaza-bicyclo[2.2.1]hept-2-yl)-9-methoxy-benzo[4,5]furo[3,2-d]pyrimidin-2-ylamine trifluoroacetic acid salt], the negative-log Ki (pKi) was less than 5.00. On the same count and under the same terms, the figure for `COc1cccc2oc3c(N4CCNCC4)nc(N)nc3c12` [Example 86, 9-Methoxy-4-piperazin-1-yl-benzo[4,5]furo[3,2-d]pyrimidin-2-ylamine trifluoroacetic acid salt] is 7.33; for `COc1cccc2oc3c(N4CCC[C@H](N)C4)nc(N)nc3c12` [Example 87, (S)-4-(3-Amino-piperidin-1-yl)-9-methoxy-benzo[4,5]furo[3,2-d]pyrimidin-2-ylamine trifluoroacetic acid salt] it is less than 5.00; for `COc1cccc2oc3c(N4CCN(C)CC4)nc(N)nc3c12` [Example 88, 9-Methoxy-4-(4-methyl-piperazin-1-yl)-benzo[4,5]furo[3,2-d]pyrimidin-2-ylamine trifluoroacetic acid salt] it is 7.52. Take `COc1ccc2oc3c(N4CCN(C)CC4)nc(N)nc3c2c1` [Example 89, 8-Methoxy-4-(4-methyl-piperazin-1-yl)-benzo[4,5]furo[3,2-d]pyrimidin-2-ylamine trifluoroacetic acid salt]: the pKi is 7.92. Same read-out and setting: in the case of `Nc1nc(N2CCNCC2)c2oc3cccc(C(F)(F)F)c3c2n1` [Example 90, 4-piperazin-1-yl-9-trifluoromethyl-benzo[4,5]furo[3,2-d]pyrimidin-2-ylamine citrate salt] it was 6.92. With `CN1CCN(c2nc(N)nc3c2oc2cccc(C(F)(F)F)c23)CC1` [Example 91, 4-(4-Methyl-piperazin-1-yl)-9-trifluoromethyl-benzo[4,5]furo[3,2-d]pyrimidin-2-ylamine citrate salt], the pKi was 7.30. The same measure, in the same setting: the figure for `Nc1nc(N2CCC[C@H](N)C2)c2oc3cccc(C(F)(F)F)c3c2n1` [Example 92, (S)-4-(3-Amino-piperidin-1-yl)-9-trifluoromethyl-benzo[4,5]furo[3,2-d]pyrimidin-2-ylamine citrate salt] is less than 5.00; for `Nc1nc(N2CCC[C@H](N)C2)c2oc3ccc(Cl)c(Cl)c3c2n1` [Example 93, (S)-4-(3-Amino-piperidin-1-yl)-8,9-dichloro-benzo[4,5]furo[3,2-d]pyrimidin-2-ylamine trifluoroacetic acid salt] it is less than 5.00. The same measure, in the same setting: in the case of `Nc1nc(N2C[C@@H]3C[C@H]2CN3)c2oc3cccc(C(F)(F)F)c3c2n1` [Example 94, (S,S)-4-(2,5-Diaza-bicyclo[2.2.1]hept-2-yl)-9-trifluoromethyl-benzo[4,5]furo[3,2-d]pyrimidin-2-ylamine citrate salt] it was 6.06; in that of `CN(CCN)c1nc(N)nc2c1oc1ccc(Cl)cc12` [Example 96, N^4-(2-Amino-ethyl)-8-chloro-N^4-methyl-benzo[4,5]furo[3,2-d]pyrimidine-2,4-diamine trifluoroacetic acid salt], 8.55.

As for `Nc1nc(N2C[C@@H]3C[C@H]2CN3)c2oc3ccc(Cl)c(Cl)c3c2n1` [Example 98, (S,S)-8,9-Dichloro-4-(2,5-diaza-bicyclo[2.2.1]hept-2-yl)-benzo[4,5]furo[3,2-d]pyrimidin-2-ylamine trifluoroacetic acid salt], the pKi was less than 5.00. The same measure, in the same setting: in the case of `CN[C@@H]1CCN(c2nc(N)nc3c2oc2ccc(Cl)c(Cl)c23)C1` [Example 99, (R)-8,9-Dichloro-4-(3-methylamino-pyrrolidin-1-yl)-benzo[4,5]furo[3,2-d]pyrimidin-2-ylamine trifluoroacetic acid salt] it was 8.00. Same read-out and setting: the figure for `CN[C@@H]1CCN(c2nc(N)nc3c2oc2cccc(OC)c23)C1` [Example 100, (R)-9-Methoxy-4-(3-methylamino-pyrrolidin-1-yl)-benzo[4,5]furo[3,2-d]pyrimidin-2-ylamine trifluoroacetic acid salt] is 7.70; for `CN1CCN(c2nc(N)nc3c2oc2ccc(Cl)c(Cl)c23)CC1` [Example 101, 8,9-Dichloro-4-(4-methyl-piperazin-1-yl)-benzo[4,5]furo[3,2-d]pyrimidin-2-ylamine trifluoroacetic acid salt] it is 8.11; for `CN[C@@H]1CCN(c2nc(N)nc3c2oc2ccc(OC)cc23)C1` [Example 102, (R)-8-Methoxy-4-(3-methylamino-pyrrolidin-1-yl)-benzo[4,5]furo[3,2-d]pyrimidin-2-ylamine trifluoroacetic acid salt] it is 7.92. The same measure, in the same setting: the figure for `NCC1CN(c2nc(N)nc3c2oc2ccc(Cl)cc23)C1` [Example 103, 4-(3-Aminomethyl-azetidin-1-yl)-8-chloro-benzo[4,5]furo[3,2-d]pyrimidin-2-ylamine trifluoroacetic acid salt] is 8.47; for `Nc1nc(N2CCNCC2)c2oc3ccc(Cl)c(Cl)c3c2n1` [Example 104, 8,9-Dichloro-4-piperazin-1-yl-benzo[4,5]furo[3,2-d]pyrimidin-2-ylamine trifluoroacetic acid salt] it is 7.21; for `COc1ccc2oc3c(N4CCC[C@H](N)C4)nc(N)nc3c2c1` [Example 107, (S)-4-(3-Amino-piperidin-1-yl)-8-methoxy-benzo[4,5]furo[3,2-d]pyrimidin-2-ylamine trifluoroacetic acid salt] it is 6.44. For `Nc1nc(N2CC[C@@H](N)C2)c2oc3ccccc3c2n1` [Example 108, (R)-4-(3-Amino-pyrrolidin-1-yl)-benzo[4,5]furo[3,2-d]pyrimidin-2-ylamine], the pKi was 8.59.

For `CN[C@@H]1CCN(c2nc(N)nc3c2oc2ncc(Cl)cc23)C1` [Example 109, (R)-3-Chloro-8-(3-methylamino-pyrrolidin-1-yl)-9-oxa-1,5,7-triaza-fluoren-6-ylamine], the negative-log Ki (pKi) was 6.59. The same measure, in the same setting: the figure for `Nc1nc(NCC2CNC2)c2oc3ccc(Cl)cc3c2n1` [Example 110, N^4-Azetidin-3-ylmethyl-8-chloro-benzo[4,5]furo[3,2-d]pyrimidine-2,4-diamine trifluoroacetic acid salt] is 5.74; for `Nc1nc(NC2CNC2)c2oc3ccc(Cl)cc3c2n1` [Example 111, N^4-Azetidin-3-yl-8-chloro-benzo[4,5]furo[3,2-d]pyrimidine-2,4-diamine trifluoroacetic acid salt] it is 6.48; for `NCCNc1nc(N)nc2c1oc1ccc(Cl)cc12` [Example 112, N^4-(2-Amino-ethyl)-8-chloro-benzo[4,5]furo[3,2-d]pyrimidine-2,4-diamine trifluoroacetic acid salt] it is 7.39.
